Experimental data as given in ChEMBL document CHEMBL1146620, “Structure-activity relationships of the peptide deformylase inhibitor BB-3497: modification of the methylene spacer and the P1' side chain” (Bioorg Med Chem Lett, 2003).
Converted amounts (≈) assume the structure as drawn.

Columns and labels:
[1] = test system: Staphylococcus capitis; experiment: Antibacterial activity against Staphylococcus capitis; format: functional
[2] = test system: Escherichia coli; experiment: Antibacterial activity against Escherichia coli; format: functional
[3] = molecular target: Peptide deformylase (Escherichia coli) (UniProt P0A6K3); experiment: Inhibition against Escherichia coli Peptide deformylase was measured at a concentration of 1 uM
Chain of Peptide deformylase (Escherichia coli) (P0A6K3 whole entry, looked up): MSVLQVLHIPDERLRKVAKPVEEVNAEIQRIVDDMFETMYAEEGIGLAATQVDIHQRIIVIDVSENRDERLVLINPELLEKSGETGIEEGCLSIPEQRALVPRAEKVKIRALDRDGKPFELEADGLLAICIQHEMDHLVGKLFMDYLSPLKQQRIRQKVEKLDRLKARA

SMILES | MIC [1] [µM] | MIC [2] [µM] | inhibition [3] [%]
CC[C@H](CN(O)C=O)C(=O)N[C@H](C(=O)N(C)C)C(C)(C)C | > 200 | 200 (≈ 60.3 µg/mL) | –
CCC[C@H](CN(O)C=O)C(=O)N[C@H](C(=O)N(C)C)C(C)(C)C | > 200 | 50 (≈ 15.8 µg/mL) | –
CCCC[C@H](C(=O)N[C@H](C(=O)N(C)C)C(C)(C)C)N(O)C=O | > 200 | > 200 | 30
CC(C)CC[C@H](CN(O)C=O)C(=O)N[C@H](C(=O)N(C)C)C(C)(C)C | 200 (≈ 68.7 µg/mL) | 50 (≈ 17.2 µg/mL) | –
C[C@H](CN(O)C=O)C(=O)N[C@H](C(=O)N(C)C)C(C)(C)C | > 200 | > 200 | –
CCSC[C@H](CN(O)C=O)C(=O)N[C@H](C(=O)N(C)C)C(C)(C)C | > 200 | 25 (≈ 8.69 µg/mL) | –
CCCCCC[C@H](CN(O)C=O)C(=O)N[C@H](C(=O)N(C)C)C(C)(C)C | > 200 | 100 (≈ 35.7 µg/mL) | –
C=CCC[C@H](CN(O)C=O)C(=O)N[C@H](C(=O)N(C)C)C(C)(C)C | 200 (≈ 65.5 µg/mL) | 25 (≈ 8.19 µg/mL) | –
CN(C)C(=O)[C@@H](NC(=O)[C@H](CC1CCCC1)CN(O)C=O)C(C)(C)C | 12.5 (≈ 4.44 µg/mL) | 12.5 (≈ 4.44 µg/mL) | –
CCCC[C@H](CCN(O)C=O)C(=O)N[C@H](C(=O)N(C)C)C(C)(C)C | > 200 | > 200 | –
COc1ccc(C[C@H](CN(O)C=O)C(=O)N[C@H](C(=O)N(C)C)C(C)(C)C)cc1 | > 200 | > 200 | –
CN(C)C(=O)[C@@H](NC(=O)[C@H](CC1CCCCC1)CN(O)C=O)C(C)(C)C | 25 (≈ 9.24 µg/mL) | 50 (≈ 18.5 µg/mL) | –
CN(C)C(=O)[C@@H](NC(=O)[C@@H](CN(O)C=O)CN1CCCCC1)C(C)(C)C | > 200 | > 200 | –
CCCC[C@@H](C(=O)N[C@H](C(=O)N(C)C)C(C)(C)C)N(O)C=O | > 200 | > 200 | 20
CCCCCCC[C@H](CN(O)C=O)C(=O)N[C@H](C(=O)N(C)C)C(C)(C)C | > 200 | > 200 | –
CCCC[C@@H](C(=O)N[C@H](C(=O)N(C)C)C(C)(C)C)C(C)N(O)C=O (some centres undefined) | > 200 | > 200 | –
CN(C)C(=O)[C@@H](NC(=O)[C@H](Cc1ccccc1)CN(O)C=O)C(C)(C)C | 50 (≈ 18.2 µg/mL) | 25 (≈ 9.09 µg/mL) | –
CC(C)C[C@H](CN(O)C=O)C(=O)N[C@H](C(=O)N(C)C)C(C)(C)C | 200 (≈ 65.9 µg/mL) | 100 (≈ 32.9 µg/mL) | –
CN(C)C(=O)[C@@H](NC(=O)[C@@H](CN(O)C=O)c1ccc(Cl)cc1)C(C)(C)C | > 200 | > 200 | –
CC(C)[C@H](CN(O)C=O)C(=O)N[C@H](C(=O)N(C)C)C(C)(C)C | > 200 | > 200 | –
CCCCC[C@H](CN(O)C=O)C(=O)N[C@H](C(=O)N(C)C)C(C)(C)C | 25 (≈ 8.59 µg/mL) | 25 (≈ 8.59 µg/mL) | –
CCCCCCCC[C@H](CN(O)C=O)C(=O)N[C@H](C(=O)N(C)C)C(C)(C)C | > 200 | > 200 | –
CCCC[C@@H](CN(O)C=O)C(=O)N[C@H](C(=O)N(C)C)C(C)(C)C | > 200 | > 200 | –
CN(C)C(=O)[C@@H](NC(=O)[C@@H](CN(O)C=O)C1CCCC1)C(C)(C)C | > 200 | > 200 | –
CC#CC[C@H](CN(O)C=O)C(=O)N[C@H](C(=O)N(C)C)C(C)(C)C | 100 (≈ 32.5 µg/mL) | 50 (≈ 16.3 µg/mL) | –
C=CC[C@H](CN(O)C=O)C(=O)N[C@H](C(=O)N(C)C)C(C)(C)C | > 200 | 50 (≈ 15.7 µg/mL) | –
